In one assay the target is T1, RIPK2 enzyme (Homo sapiens, UniProt O43353).
T1 construct: purchased Carna 09-128
The assay is described as follows: RIPK2 inhibition (ADP-Glo Kinase Assay). The assay is classed as biochemical. To be noted: RIPK2 5 nM, ATP 150 μM, MBP substrate, read-out: RIPK2 IC50. An outline of the steps: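 Swine MBP substrate; compound and 5 nM RIPK2 first mixed for 30 min at room temperature; buffer pH 7.5 HEPES 50 mM with 10 mM MgCl2, 2 mM DTT, 1 mM EGTA, Brij-35, BSA.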
In general terms: In ADP-Glo the light output rises with the ADP produced.

Another assay has as its system human NOD2 signaling. Description: Inhibition of human NOD2 signaling in HEK-Blue-hNOD2 cells (L18-MDP stimulated, SEAP reporter). The assay is classed as cell-based. Conditions: Homo sapiens, HEK-Blue hNOD2, HEK-Blue-hNOD2 cells, NOD2 ligand stimulation, SEAP reporter; read-out: hNOD2 IC50. In outline:
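Read-out is SEAP absorbance at 620 nm after 3 h QUANTI-Blue development of supernatant from HEK293 cells carrying NOD2 and a SEAP reporter (12500/well). Cells got compound (10 points, 3-fold dilutions) and 0.5 ng/mL L18-MDP for 24 h at 37 °C; percent inhibition vs stimulated/unstimulated controls, 4-parameter IC50.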

Where a name gives a salt, the structure may show the parent alone.

The IC50 is the concentration at which inhibition is half-maximal.

T1 sequence (O43353 1-299 limits assumed): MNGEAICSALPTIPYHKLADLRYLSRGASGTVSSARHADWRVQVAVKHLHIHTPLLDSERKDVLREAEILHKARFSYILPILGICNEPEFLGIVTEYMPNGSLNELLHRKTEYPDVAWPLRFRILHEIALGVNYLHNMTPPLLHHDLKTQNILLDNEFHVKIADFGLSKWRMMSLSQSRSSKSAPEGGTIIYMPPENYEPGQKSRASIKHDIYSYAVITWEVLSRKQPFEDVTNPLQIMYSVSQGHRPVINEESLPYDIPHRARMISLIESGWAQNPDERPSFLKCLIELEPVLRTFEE

Regarding `CNC(=O)Cc1ccc2nccc(Oc3cc(F)c(CC(=O)Nc4cnn(C(C)(C)C)c4)cc3C)c2c1` [Compound 567, N-(1-(tert-butyl)-1H-pyrazol-4-yl)-2-(2-fluoro-5-methyl-4-((6-(2-(methylamino)-2-oxoethyl)quinolin-4-yl)oxy)phenyl)acetamide formic acid salt], the concentration for half-maximal inhibition (IC50) on RIPK2 enzyme was below 2.5 nM; with human NOD2 signaling it was 9.8 nM.
For `CNC(=O)C(C)(C)c1ccc2nccc(Oc3cc(F)c(CC(=O)Nc4cnn(C(C)(C)C)c4)cc3C)c2c1` [Compound 569, 2-(4-(4-(2-((1-(tert-butyl)-1H-pyrazol-4-yl)amino)-2-oxoethyl)-5-fluoro-2-methylphenoxy)quinolin-6-yl)-N,2-dimethylpropanamide] the same measures were below 2.5 nM and 10.4 nM.
On the same counts, the results for `Cc1cc(CC(=O)Nc2cnn(C(C)(C)C)c2)c(F)cc1Oc1ccnc2ccc(C3(C(N)=O)CC3)cc12` [Compound 570, 1-(4-(4-(2-((1-(tert-butyl)-1H-pyrazol-4-yl)amino)-2-oxoethyl)-5-fluoro-2-methylphenoxy)quinolin-6-yl)cyclopropane-1-carboxamide] are 2.7 nM and 10.5 nM.
For `CNC(=O)C1(c2ccc3nccc(Oc4cc(F)c(CC(=O)Nc5cnn(C(C)(C)C)c5)cc4C)c3c2)CC1` [Compound 571, 1-(4-(4-(2-((1-(tert-butyl)-1H-pyrazol-4-yl)amino)-2-oxoethyl)-5-fluoro-2-methylphenoxy)quinolin-6-yl)-N-methylcyclopropane-1-carboxamide formic acid salt] the same measures were 2.9 nM and 4.5 nM.
As to `CNC(=O)C(F)(F)c1ccc2nccc(Oc3cc(F)c(CC(=O)Nc4cnn(C(C)(C)C)c4)cc3C)c2c1` [Compound 573, 2-(4-(4-(2-((1-(tert-butyl)-1H-pyrazol-4-yl)amino)-2-oxoethyl)-5-fluoro-2-methylphenoxy)quinolin-6-yl)-2,2-difluoro-N-methylacetamide], the 50% inhibitory concentration (IC50) at RIPK2 enzyme was below 2.5 nM; in the assay on human NOD2 signaling it was 1 nM.
For `[2H]C([2H])([2H])NC(=O)c1ccc2nccc(Oc3ccc(CC(=O)Nc4cnn(C(C)(C)C)c4)cc3C(F)F)c2c1` [Compound 574, 4-(4-(2-((1-(tert-butyl)-1H-pyrazol-4-yl)amino)-2-oxoethyl)-2-(difluoromethyl)phenoxy)-N-(methyl-d3)quinoline-6-carboxamide] the same measures were below 2.5 nM and 3.2 nM.
Turning to `CC(C)(C)n1cc(NC(=O)Cc2ccc(Oc3ccnc4cc(F)c(C(N)=O)cc34)c(C(F)F)c2)cn1` [Compound 575, 4-(4-(2-((1-(tert-butyl)-1H-pyrazol-4-yl)amino)-2-oxoethyl)-2-(difluoromethyl)phenoxy)-7-fluoroquinoline-6-carboxamide], the half-inhibitory concentration (IC50) at RIPK2 enzyme was below 2.5 nM; with human NOD2 signaling it was 2.2 nM.
On the same counts, the results for `CNC(=O)c1cc2c(Oc3ccc(CC(=O)Nc4cnn(C(C)(C)C)c4)cc3C(F)F)ccnc2cc1F` [Compound 576, 4-(4-(2-((1-(tert-butyl)-1H-pyrazol-4-yl)amino)-2-oxoethyl)-2-(difluoromethyl)phenoxy)-7-fluoro-N-methylquinoline-6-carboxamide] are below 2.5 nM and 5.2 nM.
On the same counts, the results for `[2H]C([2H])([2H])NC(=O)c1cc2c(Oc3ccc(CC(=O)Nc4cnn(C(C)(C)C)c4)cc3C(F)F)ccnc2cc1F` [Compound 577, 4-(4-(2-((1-(tert-butyl)-1H-pyrazol-4-yl)amino)-2-oxoethyl)-2-(difluoromethyl)phenoxy)-7-fluoro-N-(methyl-d3)quinoline-6-carboxamide] are below 2.5 nM and 2 nM.
For `COc1cc2nccc(Oc3ccc(CC(=O)Nc4cnn(C(C)(C)C)c4)cc3C(F)F)c2cc1C(N)=O` [Compound 578, 4-(4-(2-((1-(tert-butyl)-1H-pyrazol-4-yl)amino)-2-oxoethyl)-2-(difluoromethyl)phenoxy)-7-methoxy-quinoline-6-carboxamide], the results for the half-maximal inhibitory concentration (IC50) on RIPK2 enzyme and with human NOD2 signaling were below 2.5 nM and 0.7 nM, respectively.
With `CNC(=O)c1cc2c(Oc3ccc(CC(=O)Nc4cnn(C(C)(C)C)c4)cc3C(F)F)ccnc2cc1OC` [Compound 579, 4-(4-(2-((1-(tert-butyl)-1H-pyrazol-4-yl)amino)-2-oxoethyl)-2-(difluoromethyl)phenoxy)-7-methoxy-N-methylquinoline-6-carboxamide], the IC50 at RIPK2 enzyme was below 2.5 nM; in the assay on human NOD2 signaling it was 0.8 nM.
On the same counts, the results for `[2H]C([2H])([2H])NC(=O)c1cc2c(Oc3ccc(CC(=O)Nc4cnn(C(C)(C)C)c4)cc3C(F)F)ccnc2cc1OC` [Compound 580, 4-(4-(2-((1-(tert-butyl)-1H-pyrazol-4-yl)amino)-2-oxoethyl)-2-(difluoromethyl)phenoxy)-7-methoxy-N-(methyl-d3)quinoline-6-carboxamide] are below 2.5 nM and 1.2 nM.
For `[2H]C([2H])([2H])NC(=O)c1cc2c(Oc3c(C)cc(CC(=O)Nc4cnn(C(C)(C)C)c4)cc3Cl)ccnc2cc1F` [Compound 586, 4-(4-(2-((1-(tert-butyl)-1H-pyrazol-4-yl)amino)-2-oxoethyl)-2-chloro-6-methylphenoxy)-7-fluoro-N-(methyl-d3)quinoline-6-carboxamide] the same measures were below 2.5 nM and 0.6 nM.
For `Cc1cc(CC(=O)Nc2cnn(C34CC(C3)C4)c2)cc(C)c1Oc1ccnc2ccc(C(N)=O)cc12` [Compound 587, 4-(4-(2-((1-(bicyclo[1.1.1]pentan-1-yl)-1H-pyrazol-4-yl)amino)-2-oxoethyl)-2,6-dimethylphenoxy)quinoline-6-carboxamide], the IC50 on RIPK2 enzyme was below 2.5 nM; with human NOD2 signaling it was 28.6 nM.
For `CNC(=O)c1ccc2nccc(Oc3c(C)cc(CC(=O)Nc4cnn(C56CC(C5)C6)c4)cc3C)c2c1` [Compound 588, 4-(4-(2-((1-(bicyclo[1.1.1]pentan-1-yl)-1H-pyrazol-4-yl)amino)-2-oxoethyl)-2,6-dimethylphenoxy)-N-methylquinoline-6-carboxamide] the same measures were below 2.5 nM and 36 nM.
On the same counts, the results for `[2H]C([2H])([2H])NC(=O)c1ccc2nccc(Oc3c(C)cc(CC(=O)Nc4cnn(C56CC(C5)C6)c4)cc3C)c2c1` [Compound 589, 4-(4-(2-((1-(bicyclo[1.1.1]pentan-1-yl)-1H-pyrazol-4-yl)amino)-2-oxoethyl)-2,6-dimethylphenoxy)-N-(methyl-d3)quinoline-6-carboxamide] are below 2.5 nM and 48.6 nM.
As for `Cc1cc(CC(=O)Nc2cnn(C34CC(C3)C4)c2)cc(Cl)c1Oc1ccnc2ccc(C(N)=O)cc12` [Compound 590, 4-(4-(2-((1-(bicyclo[1.1.1]pentan-1-yl)-1H-pyrazol-4-yl)amino)-2-oxoethyl)-2-chloro-6-methylphenoxy)quinoline-6-carboxamide], the IC50 on RIPK2 enzyme is below 2.5 nM; in the assay with human NOD2 signaling it was 31.2 nM.
For `CNC(=O)c1ccc2nccc(Oc3c(C)cc(CC(=O)Nc4cnn(C56CC(C5)C6)c4)cc3Cl)c2c1` [Compound 591, 4-(4-(2-((1-(bicyclo[1.1.1]pentan-1-yl)-1H-pyrazol-4-yl)amino)-2-oxoethyl)-2-chloro-6-methylphenoxy)-N-methylquinoline-6-carboxamide] the same measures were below 2.5 nM and 46.7 nM.
On the same counts, the results for `[2H]C([2H])([2H])NC(=O)c1ccc2nccc(Oc3c(C)cc(CC(=O)Nc4cnn(C56CC(C5)C6)c4)cc3Cl)c2c1` [Compound 592, 4-(4-(2-((1-(bicyclo[1.1.1]pentan-1-yl)-1H-pyrazol-4-yl)amino)-2-oxoethyl)-2-chloro-6-methylphenoxy)-N-(methyl-d3)quinoline-6-carboxamide] are 2.8 nM and 80.2 nM.
As to `[2H]C([2H])([2H])C(n1cc(NC(=O)Cc2cc(C)c(Oc3ccnc4cc(F)c(C(=O)NC)cc34)cc2F)cn1)(C([2H])([2H])[2H])C([2H])([2H])[2H]` [Compound 596, 7-fluoro-4-(5-fluoro-2-methyl-4-(2-((1-(2-(methyl-d3)propan-2-yl-1,1,1,3,3,3-d6)-1H-pyrazol-4-yl)amino)-2-oxoethyl)phenoxy)-N-methylquinoline-6-carboxamide], the results for the IC50 on RIPK2 enzyme and with human NOD2 signaling were below 2.5 nM and 0.7 nM, respectively.
On the same counts, the results for `[2H]C([2H])([2H])C(n1cc(NC(=O)Cc2ccc(Oc3ccnc4ccc(S(C)(=O)=O)cc34)c(C)c2)cn1)(C([2H])([2H])[2H])C([2H])([2H])[2H]` [Compound 597, 2-(3-methyl-4-((6-(methylsulfonyl)quinolin-4-yl)oxy)phenyl)-N-(1-(2-(methyl-d3)propan-2-yl-1,1,1,3,3,3-d6)-1H-pyrazol-4-yl)acetamide] are below 2.5 nM and 1.3 nM.
On the same counts, the results for `Cc1cc(CC(=O)Nc2cnn(C(C)(C)C)c2)cc(F)c1Oc1ccnc2cc(F)c(C(N)=O)cc12` [Compound 598, 4-(4-(2-((1-(tert-butyl)-1H-pyrazol-4-yl)amino)-2-oxoethyl)-2-fluoro-6-methylphenoxy)-7-fluoroquinoline-6-carboxamide] are below 2.5 nM and 2.3 nM.
On the same counts, the results for `CNC(=O)c1cc2c(Oc3c(C)cc(CC(=O)Nc4cnn(C(C)(C)C)c4)cc3F)ccnc2cc1F` [Compound 599, 4-(4-(2-((1-(tert-butyl)-1H-pyrazol-4-yl)amino)-2-oxoethyl)-2-fluoro-6-methylphenoxy)-7-fluoro-N-methylquinoline-6-carboxamide] are below 2.5 nM and 1.7 nM.
